Legend:
superoxide anion = experiment: Direct superoxide anion scavenging by EPR spectroscopy (DEPMPO spin-trap) in PMA-stimulated isolated human neutrophils; assay type: cell-based
Description: Leukocyte Isolation and Preparation. Human polymorphonuclear leukocytes (PMNs) were isolated from freshly sampled venous blood of a single volunteer by Percoll density gradient centrifugation as described previously. Briefly, each 10 mL of whole blood was mixed with 0.8 mL of 0.1 M EDTA and 25 mL of saline. The diluted blood was then layered over 9 mL of Percoll at a specific density of 1.080 g/mL. After centrifugation at 400×g for 20 min at 20° C., the plasma, mononuclear cell, and Percoll layers were removed. Erythrocytes were subsequently lysed by addition of 18 mL of ice-cold water for 30 s, followed by 2 mL of 10× PIPES buffer (25 mM PIPES, 110 mM NaCl, and 5 mM KCl, titrated to pH 7.4 with NaOH). Cells were then pelleted at 4° C., the supernatant was decanted, and the procedure was repeated. After the second hypotonic cell lysis, cells were washed twice with PAG buffer [PIPES buffer containing 0.003% human serum albumin (HSA) and 0.1% glucose]. Afterward, PMNs were counted by light microscopy on a hemocytometer. The isolation yielded PMNs with a purity of >95%. The final pellet was then suspended in PAG-CM buffer (PAG buffer with 1 mM CaCl2 and 1 mM MgCl2). EPR Measurements. All EPR measurements were performed using a Bruker ER 300 EPR spectrometer operating at X-band with a TM110 cavity as previously described. The microwave frequency was measured with a Model 575 microwave counter (EIP Microwave, Inc., San Jose, Calif.). To measure superoxide anion (O2) generation from phorbol-ester (PMA)-stimulated PMNs, EPR spin-trapping studies were performed using the spin trap DEPMPO (Oxis, Portland, Oreg.) at 10 mM. 1×10^6 PMNs were stimulated with PMA (1 ng/mL) and loaded into capillary tubes for EPR measurements. To determine the radical scavenging ability of 3 and 9 in aqueous and ethanolic formulations, PMNs were pre-incubated for 5 minutes with test compound, followed by PMA stimulation.
Instrument settings used in the spin-trapping experiments were as follows: modulation amplitude, 0.32 G; time constant, 0.16 s; scan time, 60 s; modulation frequency, 100 kHz; microwave power, 20 milliwatts; and microwave frequency, 9.76 GHz. The samples were placed in a quartz EPR flat cell, and spectra were recorded. The component signals in the spectra were identified and quantified as reported previously.

[1] = assay type: physicochemical
Description: Determination of aqueous solubility/dispersibility. 30.13 mg of 3 was added to 1 mL of USP-purified water. The sample was rotated for 2 hours, then centrifuged for 5 minutes. […] A 125-μL aliquot of the solution was then diluted to 25 mL. The sample was analyzed by UV/Vis spectroscopy at 436 nm, and the absorbance was compared to a standard curve compiled from 4 standards of known concentration.
The sample was rotated for 2 hours, then centrifuged for 5 minutes. […] A 125-μL aliquot of the solution was then diluted to 25 mL. The sample was analyzed by UV/Vis spectroscopy at 411 nm, and the absorbance was compared to a standard curve compiled from 4 standards of known concentration.

[2] = biological target: human serum albumin (HSA) (Homo sapiens, UniProt P02768); experiment: Plasma-protein binding studies in vitro
human serum albumin (HSA), sequence (P02768 25-609): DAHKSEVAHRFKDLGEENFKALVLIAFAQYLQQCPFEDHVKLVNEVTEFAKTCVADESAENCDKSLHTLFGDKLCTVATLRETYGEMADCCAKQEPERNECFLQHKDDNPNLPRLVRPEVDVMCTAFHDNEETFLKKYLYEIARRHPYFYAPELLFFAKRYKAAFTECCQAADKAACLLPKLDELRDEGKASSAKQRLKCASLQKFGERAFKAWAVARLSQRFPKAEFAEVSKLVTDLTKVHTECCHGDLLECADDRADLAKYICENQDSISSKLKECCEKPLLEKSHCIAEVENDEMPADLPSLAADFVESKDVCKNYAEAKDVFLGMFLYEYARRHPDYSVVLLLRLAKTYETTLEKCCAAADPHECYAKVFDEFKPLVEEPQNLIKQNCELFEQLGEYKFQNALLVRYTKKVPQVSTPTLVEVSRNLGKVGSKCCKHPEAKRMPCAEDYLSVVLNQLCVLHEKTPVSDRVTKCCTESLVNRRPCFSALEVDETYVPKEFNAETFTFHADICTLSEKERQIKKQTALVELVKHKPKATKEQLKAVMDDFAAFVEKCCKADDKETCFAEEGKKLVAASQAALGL

3,3′-Diphosphoryloxy-β,ε-carotene sodium salt [compound 9]
Mean (% inhibition) of superoxide anion signal (superoxide anion; 0.1 mM, 40% EtOH (EtOH vehicle alone 5%), listed as Lutein Diphosphate Sodium Salt, sodium salt): 18.0%
Mean (% inhibition) of superoxide anion signal (superoxide anion; 0.1 mM, 40% EtOH (EtOH vehicle alone 5%), listed as disodium diphosphate derivative of natural source lutein, sodium salt): 18%
Mean (% inhibition) of superoxide anion signal (superoxide anion; 0.1 mM, Water, listed as disodium diphosphate derivative of natural source lutein, sodium salt): 0%
Mean (% inhibition) of superoxide anion signal (superoxide anion; 1.0 mM, Water): 9.3%
Mean (% inhibition) of superoxide anion signal (superoxide anion; 3.0 mM, Water): 72.3%
Mean (% inhibition) of superoxide anion signal (superoxide anion; 5.0 mM, Water, listed as Lutein Diphosphate Sodium Salt, sodium salt): 91.0%
Mean (% inhibition) of superoxide anion signal (superoxide anion; 5.0 mM, Water, listed as disodium diphosphate derivative of natural source lutein, sodium salt): more than 90%
increase in dispersibility of diphosphate salt over disuccinate sodium salt [1]: > 10 fold

CC1=C(/C=C/C(C)=C/C=C/C(C)=C/C=C/C=C(C)/C=C/C=C(C)/C=C/C2=C(C)C(=O)[C@@H](O)CC2(C)C)C(C)(C)C[C@H](O)C1=O [astaxanthin, reference compound]
water solubility [1]: insoluble in water

CC(C=CC=C(C)C=CC1=C(C)C(=O)C(OC(=O)CCC(=O)[O-])CC1(C)C)=CC=CC=C(C)C=CC=C(C)C=CC1=C(C)C(=O)C(OC(=O)CCC(=O)[O-])CC1(C)C.[Na+].[Na+] [meso-(3R,3′S)-disodium disuccinate astaxanthin]
binding to human serum albumin [2]: bound immediately and preferentially to human serum albumin (HSA)

β,ε-carotenyl 3,3′-disuccinate sodium salt [compound 3]
Mean (% inhibition) of superoxide anion signal (superoxide anion; 0.1 mM, 40% EtOH (EtOH vehicle alone 5%), listed as Lutein Disuccinate Sodium Salt, sodium salt): 5.0%
Mean (% inhibition) of superoxide anion signal (superoxide anion; 0.1 mM, 40% EtOH (EtOH vehicle alone 5%), listed as disodium disuccinate derivative of natural source lutein, sodium salt): did not significantly increase scavenging
Mean (% inhibition) of superoxide anion signal (superoxide anion; 0.1 mM, Water): 0%
Mean (% inhibition) of superoxide anion signal (superoxide anion; 1.0 mM, Water): 13.0%
Mean (% inhibition) of superoxide anion signal (superoxide anion; 3.0 mM, Water): 61.7%
Mean (% inhibition) of superoxide anion signal (superoxide anion; 5.0 mM, Water, listed as Lutein Disuccinate Sodium Salt, sodium salt): 74.7%
Mean (% inhibition) of superoxide anion signal (superoxide anion; 5.0 mM, Water, listed as disodium disuccinate derivative of natural source lutein, sodium salt): ~75%
Mean (% inhibition) of superoxide anion signal (superoxide anion; 5.0 mM, Water, listed as disuccinate lutein sodium salt, sodium salt): 75%
Aqueous dispersibility (concentration of supernatant) ([1]; 2 h): 2.85 mg/mL

Reference: patent US7691901B2, “Carotenoid analogs or derivatives for the inhibition and amelioration of inflammation” (Cardax Pharmaceuticals Inc., priority 2004, dated 2010)
